# Source: patent US10980805B2, “Aza-pyridone compounds and uses thereof” (Janssen BioPharma, Inc., priority 2013, dated 2021)
# Read-outs that look alike come from different tables or passages of the source.
# Key:
# [1] = tested on: influenza strains B/Malaysia/2506/2004 or B/Victoria/504/2000; assay: Influenza B assay (fluorescence-based influenza neuraminidase assay); assay type: cell-based; details: Influenza B virus, A549, 20 h; read-out: Potency (EC50)
# [2] = tested on: Influenza strain A549_A/WSN/33 (H1N1); assay: Influenza antiviral assay (neuraminidase fluorescence readout); assay type: cell-based, Influenza virus; details: read-out: % Inhibition (EC50 class, Table 2)
# [3] = molecular target: Full length EN PA (influenza PA endonuclease) (Influenza A virus, UniProt P15659); assay: EN PA FRET inhibition assay; assay type: biochemical; details: FRET probe, mean of a minimum of two independent experiments, read-out: Potency (IC50 class, Table 3)
# [4] = tested on: Influenza strain A/Port Chalmers/1/73 (H3N2); assay: Combination studies (checker-board, MacSynergy II); assay type: cell-based, Influenza virus; details: MDCK cells, three days
# [5] = Compound 2 = Rimantadine (M2 Channel-Inhibitor)
smiles,measurement,setting,value
CN1C[C@H](C2c3ccccc3CCc3ccccc32)n2ncc(=O)c(O)c2C1=O [Compound 7-A],EC50,[1],< 20 µM
same,EC50,[2]; Influenza A virus,< 20 µM
same,IC50,[3],< 0.25 µM
CCN1C[C@H](C(c2cccc(F)c2)c2cccc(F)c2)n2ncc(=O)c(O)c2C1=O [Compound 21-A],EC50,[1],< 20 µM
same,EC50,[2]; Influenza A virus,< 20 µM
same,IC50,[3],< 0.25 µM
CCN1C[C@H](C(c2cccc(Cl)c2)c2cccc(Cl)c2)n2ncc(=O)c(O)c2C1=O [Compound 39-A],EC50,[1],< 20 µM
same,EC50,[2]; Influenza A virus,< 20 µM
same,IC50,[3],< 0.25 µM
CC(C)N1C[C@H](C(c2cccc(F)c2)c2cccc(F)c2)n2ncc(=O)c(O)c2C1=O [Compound 41-A],EC50,[1],< 20 µM
same,EC50,[2]; Influenza A virus,< 20 µM
same,IC50,[3],< 0.25 µM
CC(C)N1C[C@H](C(c2cccc(Cl)c2)c2cccc(Cl)c2)n2ncc(=O)c(O)c2C1=O [Compound 68-A],EC50,[1],< 20 µM
same,EC50,[2]; Influenza A virus,< 20 µM
same,IC50,[3],< 0.25 µM
COCCN1C[C@H](C(c2cccc(F)c2)c2cccc(F)c2)n2ncc(=O)c(O)c2C1=O [Compound 76-A],EC50,[1],< 20 µM
same,EC50,[2]; Influenza A virus,< 20 µM
same,IC50,[3],< 0.25 µM
CN1C[C@H]([C@H](c2ccccc2)n2ccnc2)n2ncc(=O)c(O)c2C1=O [Compound 108-B],EC50,[2]; Influenza A virus,20 to 100 µM
same,IC50,[3],< 0.25 µM
C#Cc1ccn([C@H](c2ccccc2)[C@@H]2CN(C)C(=O)c3c(O)c(=O)cnn32)n1 [Compound 109-A],EC50,[2]; Influenza A virus,< 20 µM
same,IC50,[3],< 0.25 µM
C#Cc1ccn([C@@H](c2ccccc2)[C@H]2CN(C)C(=O)c3c(O)c(=O)cnn32)n1 [Compound 109-B],EC50,[2]; Influenza A virus,< 20 µM
same,IC50,[3],< 0.25 µM
C#Cc1ccn([C@H](c2ccccc2)[C@H]2CN(C)C(=O)c3c(O)c(=O)cnn32)n1 [Compound 109-C],EC50,[2]; Influenza A virus,< 20 µM
same,IC50,[3],< 0.25 µM
C#Cc1ccn([C@@H](c2ccccc2)[C@@H]2CN(C)C(=O)c3c(O)c(=O)cnn32)n1 [Compound 109-D],EC50,[2]; Influenza A virus,< 20 µM
same,IC50,[3],0.25 to 1 µM
C#Cc1ccn(C(c2ccccc2)C2CN(C)C(=O)c3c(O)c(=O)cnn32)n1 (stereo not shown) [Compound 109],EC50,[2]; Influenza A virus,< 20 µM
same,IC50,[3],< 0.25 µM
C[C@@H](N1C[C@H](C(c2ccccc2)c2ccccc2)n2ncc(=O)c(O)c2C1=O)C(F)(F)F [Compound 110-A],EC50,[2]; Influenza A virus,< 20 µM
same,IC50,[3],< 0.25 µM
CC#Cc1cn(C(c2ccccc2)C2CN(C)C(=O)c3c(O)c(=O)cnn32)cn1 (stereo not shown) [Compound 111],EC50,[2]; Influenza A virus,≥ 100 µM
same,IC50,[3],0.25 to 1 µM
CC(C)N1C[C@H](C(c2ccccc2)c2ccccc2)n2ncc(=O)c(OC(=O)C3CCCCC3)c2C1=O [Compound 112],EC50,[2]; Influenza A virus,< 20 µM
same,IC50,[3],0.25 to 1 µM
CC(C)N1C[C@H](C(c2ccccc2)c2ccccc2)n2ncc(=O)c(OCOC(=O)C(C)(C)N)c2C1=O [Compound 113-A],EC50,[2]; Influenza A virus,< 20 µM
same,IC50,[3],< 0.25 µM
CC(C)N1C[C@@H](C(c2ccccc2)c2ccccc2)n2ncc(=O)c(OCOC(=O)C(C)(C)N)c2C1=O [Compound 113-B],EC50,[2]; Influenza A virus,20 to 100 µM
same,IC50,[3],0.25 to 1 µM
CC(C)C(=O)Oc1c2n(ncc1=O)[C@@H](C1c3cccc(F)c3CCc3c(F)cccc31)CN(C(C)C)C2=O [Compound 114-A],EC50,[2]; Influenza A virus,< 20 µM
same,Synergy Volume,[4]; Compound 2 = Amantadine (M2 Channel-Inhibitor),86 μM^2%
same,Synergy Volume,[4]; Compound 2 = Favipiravir (T-705) (Polymerase Inhibitor),132 μM^2%
same,Synergy Volume,[4]; Compound 2 = Oseltamivir (Neuraminidase-Inhibitor),205 μM^2%
same,Synergy Volume,[4]; Compound 2 = Peramivir (Neuraminidase-Inhibitor),100 μM^2%
same,Synergy Volume,[4]; Compound 2 = Ribavirin (Polymerase Inhibitor),55 μM^2%
same,Observed Result,[4]; [5],synergistic (volumes in the 25-100 range indicate synergistic behavior)
same,Synergy Volume,[4]; [5],45 μM^2%
same,Synergy Volume,[4]; Compound 2 = Zanamivir (Neuraminidase-Inhibitor),127 μM^2%
same,IC50,[3],< 0.25 µM
CC(C)C(=O)Oc1c2n(ncc1=O)[C@H](C1c3cccc(F)c3CCc3c(F)cccc31)CN(C(C)C)C2=O [Compound 114-B],EC50,[2]; Influenza A virus,< 20 µM
same,IC50,[3],≥ 1 µM
CC(C)C(=O)Oc1c2n(ncc1=O)C(C1c3cccc(F)c3CCc3c(F)cccc31)CN(C(C)C)C2=O (stereo not shown) [Compound 114],EC50,[2]; Influenza A virus,< 20 µM
same,IC50,[3],< 0.25 µM
CC#Cc1ccn([C@H](c2ccccc2)[C@@H]2CN(C)C(=O)c3c(O)c(=O)cnn32)n1 [Compound 115-A],EC50,[2]; Influenza A virus,< 20 µM
same,IC50,[3],≥ 1 µM
CC#Cc1ccn([C@@H](c2ccccc2)[C@H]2CN(C)C(=O)c3c(O)c(=O)cnn32)n1 [Compound 115-B],EC50,[2]; Influenza A virus,< 20 µM
same,IC50,[3],< 0.25 µM
CC#Cc1ccn([C@H](c2ccccc2)[C@H]2CN(C)C(=O)c3c(O)c(=O)cnn32)n1 [Compound 115-C],EC50,[2]; Influenza A virus,< 20 µM
same,IC50,[3],< 0.25 µM
CC#Cc1ccn([C@@H](c2ccccc2)[C@@H]2CN(C)C(=O)c3c(O)c(=O)cnn32)n1 [Compound 115-D],EC50,[2]; Influenza A virus,< 20 µM
same,IC50,[3],≥ 1 µM
CC#Cc1ccn(C(c2ccccc2)C2CN(C)C(=O)c3c(O)c(=O)cnn32)n1 (stereo not shown) [Compound 115],EC50,[2]; Influenza A virus,< 20 µM
same,IC50,[3],< 0.25 µM
C#Cc1cn(C(c2ccccc2)C2CN(C)C(=O)c3c(O)c(=O)cnn32)cn1 (stereo not shown) [Compound 116],EC50,[2]; Influenza A virus,< 20 µM
same,IC50,[3],< 0.25 µM
CCC#Cc1ccn(C(c2ccccc2)C2CN(C)C(=O)c3c(O)c(=O)cnn32)n1 (stereo not shown) [Compound 117],EC50,[2]; Influenza A virus,< 20 µM
same,IC50,[3],< 0.25 µM
CC(C)CC(=O)Oc1c2n(ncc1=O)[C@@H](C(c1ccccc1)c1ccccc1)CN(C(C)C)C2=O [Compound 118],EC50,[2]; Influenza A virus,< 20 µM
same,IC50,[3],0.25 to 1 µM
CC(C)N1C[C@H](C(c2ccccc2)c2ccccc2)n2ncc(=O)c(OC(=O)C3CCCC3)c2C1=O [Compound 119],EC50,[2]; Influenza A virus,< 20 µM
same,IC50,[3],< 0.25 µM
CC(C)N1C[C@H](C(c2ccccc2)c2ccccc2)n2ncc(=O)c(OC(=O)C3CCOCC3)c2C1=O [Compound 120],EC50,[2]; Influenza A virus,< 20 µM
same,IC50,[3],< 0.25 µM
CC(C)N1CC(C2c3ccccc3CSc3ccccc32)n2ncc(=O)c(O)c2C1=O (stereo not shown) [Compound 121],EC50,[2]; Influenza A virus,< 20 µM
same,IC50,[3],< 0.25 µM
CCC#Cc1ccn([C@H](c2ccccc2)[C@H]2CN(C)C(=O)c3c(O)c(=O)cnn32)n1 [Compound 122],EC50,[2]; Influenza A virus,< 20 µM
same,IC50,[3],< 0.25 µM
CCC#Cc1ccn([C@@H](c2ccccc2)[C@H]2CN(C)C(=O)c3c(O)c(=O)cnn32)n1 [Compound 123],EC50,[2]; Influenza A virus,< 20 µM
same,IC50,[3],< 0.25 µM
CCC#Cc1ccn([C@H](c2ccccc2)[C@@H]2CN(C)C(=O)c3c(O)c(=O)cnn32)n1 [Compound 124],EC50,[2]; Influenza A virus,< 20 µM
same,IC50,[3],0.25 to 1 µM
CCC#Cc1ccn([C@@H](c2ccccc2)[C@@H]2CN(C)C(=O)c3c(O)c(=O)cnn32)n1 [Compound 125],EC50,[2]; Influenza A virus,< 20 µM
same,IC50,[3],< 0.25 µM
CCC#Cc1ccn(C(c2ccccc2)C2CN(C(C)C)C(=O)c3c(O)c(=O)cnn32)n1 (stereo not shown) [Compound 126],EC50,[2]; Influenza A virus,< 20 µM
same,IC50,[3],< 0.25 µM
CC(C)N1C[C@H]([C@H](c2ccccc2)n2ccc(C#N)n2)n2ncc(=O)c(O)c2C1=O [Compound 127-A],EC50,[2]; Influenza A virus,< 20 µM
same,IC50,[3],< 0.25 µM
CC(C)N1C[C@H]([C@@H](c2ccccc2)n2ccc(C#N)n2)n2ncc(=O)c(O)c2C1=O [Compound 127-B],EC50,[2]; Influenza A virus,< 20 µM
same,IC50,[3],< 0.25 µM
CC(C)N1C[C@H]([C@@H](c2ccccc2)n2ccc(C#N)n2)n2ncc(=O)c(O)c2C1=O [Compound 127-C],EC50,[2],< 20 µM
same,IC50,[3],0.25 to 1 µM
CC(C)N1C[C@@H]([C@@H](c2ccccc2)n2ccc(C#N)n2)n2ncc(=O)c(O)c2C1=O [Compound 127-D],EC50,[2]; Influenza A virus,< 20 µM
same,IC50,[3],0.25 to 1 µM
CC(C)N1CC(C(c2ccccc2)n2ccc(C#N)n2)n2ncc(=O)c(O)c2C1=O (stereo not shown) [Compound 127],EC50,[2]; Influenza A virus,< 20 µM
same,IC50,[3],< 0.25 µM
CN1C[C@H]([C@@H](c2ccccc2)c2ccccn2)n2ncc(=O)c(O)c2C1=O [Compound 128],EC50,[2]; Influenza A virus,< 20 µM
same,IC50,[3],< 0.25 µM
[2H]c1c([2H])c([2H])c(C(c2c([2H])c([2H])c([2H])c([2H])c2[2H])[C@H]2CN(C(C)C)C(=O)c3c(O)c(=O)cnn32)c([2H])c1[2H] [Compound 129],EC50,[2]; Influenza A virus,< 20 µM
same,IC50,[3],< 0.25 µM
CN1C[C@@H]([C@@H](c2ccccc2)c2ccccn2)n2ncc(=O)c(O)c2C1=O [Compound 131],EC50,[2]; Influenza A virus,< 20 µM
same,IC50,[3],< 0.25 µM
CC(C)N1C[C@H]([C@@H](c2ccccc2)c2ccccn2)n2ncc(=O)c(O)c2C1=O [Compound 132],EC50,[2]; Influenza A virus,< 20 µM
same,IC50,[3],< 0.25 µM
CC(C)OC(=O)Oc1c2n(ncc1=O)[C@@H](C(c1ccccc1)c1ccccc1)CN(C(C)C)C2=O [Compound 133],EC50,[2]; Influenza A virus,< 20 µM
same,IC50,[3],≥ 1 µM
CC(C)COC(=O)Oc1c2n(ncc1=O)[C@@H](C(c1ccccc1)c1ccccc1)CN(C(C)C)C2=O [Compound 134],EC50,[2]; Influenza A virus,< 20 µM
same,IC50,[3],≥ 1 µM
CC(C)N1CC(C(c2ccccc2)c2cccnc2)n2ncc(=O)c(O)c2C1=O (stereo not shown) [Compound 135],EC50,[2]; Influenza A virus,< 20 µM
same,IC50,[3],< 0.25 µM
CC(C)N1C[C@@H]([C@@H](c2ccccc2)c2ccccn2)n2ncc(=O)c(O)c2C1=O [Compound 138],EC50,[2]; Influenza A virus,< 20 µM
same,IC50,[3],< 0.25 µM
